{
  "source": "paper PMC12501029",
  "about": "“Discovery of a CNS active GSK3 degrader using orthogonally reactive linker screening” (Nature Communications, 2025)",
  "key": {"[1]": {"tested_on": "HEK293 cells phosphoproteome", "assay": "Phosphoproteomics in HEK293 cells", "assay_type": "cell-based, human", "set-up": "scale not given here", "conditions": "vs DMSO; phosphosite abundance difference; MOESM9", "method": "IMAC beads were prepared from Ni-NTA (nitrilotriacetic acid) superflow agarose beads. The nickel was stripped with 100 mM EDTA and incubated in an aqueous solution of 10 mM iron (III) chloride (FeCl3). Dried peptide fractions were reconstituted to a concentration of 0.5 μg/μL in 80% ACN/0.1% TFA. Peptide mixtures were enriched for phosphorylated peptides with 5 μL IMAC beads for 30 min with end-to-end rotation.\nEnriched IMAC beads were loaded on Empore C18 silica-packed stage tips. Stage tips were equilibrated with acetonitrile followed by 50% ACN/0.1% FA then 1% FA. The beads with enriched peptides were loaded onto C18 stage tips and washed with 80% ACN/0.1% TFA. Phosphorylated peptides were eluted from IMAC beads with 500 mM dibasic sodium phosphate, pH 7.0. These peptides were washed with 1% FA before elution using 50% acetonitrile in 0.1% FA. The peptides were then dried by SpeedVac and stored at −20 °C until mass spectrometry analysis. The dried phosphopeptides were reconstituted in 0.1% formic acid and analyzed on an Orbitrap Ascend mass spectrometer coupled to a Thermo Fisher Scientific Vanquish Neo UHPLC. […] The total run time was set to 155 min. A survey full scan MS (from m/z 350–1500) was acquired in the Orbitrap at a resolution of 120,000 at 200 m/z. The most intense ions with charge state ≥2 were isolated and fragmented using higher collision dissociation (HCD) fragmentation, with 30% normalised collision energy, and detected at a mass resolution of 50,000 at 200 m/z. The isolation window was set at 1.6. The phosphoproteomics raw data were searched using SEQUEST HT search engines with Proteome Discoverer 3.0 (Thermo Fisher Scientific). The following parameters were used for searches: Precursor mass tolerance 10 ppm, fragment mass tolerance 0.02, enzyme: trypsin, […], fixed modification: carbamidomethylation of cysteine residues and TMT of lysine and N-terminal, dynamic modification: oxidation of methionine and phosphorylation of serine, threonine and tyrosine. The data were filtered for 1% PSM and peptide level. A two-tailed t-test with 250 randomisations was performed in Perseus software (v1.6.15.0) to assess statistical significance between groups. The resulting data were visualised as a volcano plot using GraphPad Prism (v10.1.2)."}, "[2]": {"target": "T1, GSK3β-HiBiT (GSK3β-HiBiT KI HEK293 cells) (Homo sapiens, UniProt P49841)", "T1 construct": "we generated endogenously tagged GSK3β-HiBiT knock-in (KI) HEK293 cells; endogenous in cells; host or cells: GSK3β-HiBiT knock-in HEK293 cells (CRISPR/Cas9, single-cell clone)", "T1 sequence (P49841 whole entry)": "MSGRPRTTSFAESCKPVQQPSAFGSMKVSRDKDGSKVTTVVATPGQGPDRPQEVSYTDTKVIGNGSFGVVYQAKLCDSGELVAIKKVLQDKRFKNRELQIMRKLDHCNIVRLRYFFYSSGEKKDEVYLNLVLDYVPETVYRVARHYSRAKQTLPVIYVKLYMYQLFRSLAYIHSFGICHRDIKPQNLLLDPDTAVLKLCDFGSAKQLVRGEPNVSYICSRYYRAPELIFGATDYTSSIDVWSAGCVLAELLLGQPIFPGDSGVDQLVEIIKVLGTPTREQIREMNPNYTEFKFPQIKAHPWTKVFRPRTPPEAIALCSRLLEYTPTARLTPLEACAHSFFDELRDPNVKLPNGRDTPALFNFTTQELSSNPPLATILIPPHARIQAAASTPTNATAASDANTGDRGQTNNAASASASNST", "assay": "Serum shift assay (10% FBS or 10% mouse serum)", "assay_type": "cell-based", "method": "Test compounds were serially diluted into white bottom opaque tissue culture grade 384-well assay plates (Perkin Elmer) using Echo500 (Labcyte) and GSK3β-HiBiT KI HEK293 cells were seeded at a density of 5 × 10^3 cells per well either in 50 µL of DMEM supplemented with regular 10% FBS (Gibco) or instead 10% mouse serum (Balb/C) and plates were incubated for compound treatment in incubators at 37 °C. After 24 h of compound treatment, HiBiT lytic reagents (Promega) prepared according to manufacturers’ instructions were added into plates and luminescence signal was measured on a PheraStar plate reader (BMG) and data analysed using GraphPad Prism (v10.1.2) as previously described above."}},
  "data": [
    {"smiles": "Cn1nc(N2CCC(=O)NC2=O)c2ccc(CN3CCN(Cc4ccc(-c5cn(-c6ccc(-c7cn8nccc(C(=O)Nc9cnccc9N9CCOCC9)c8n7)cc6)nn5)nc4)CC3)cc21", "note": "[compound 24]", "values": [
      {"measurement": "Difference, Q5PRF9 1xPhospho [S592(100)] SAMD4B", "setting": "[1]", "result": 0.2452},
      {"measurement": "Difference, Q8NEM7 1xPhospho [S437(100)] SUPT20H", "setting": "[1]", "result": 0.1561},
      {"measurement": "Difference, Q96KQ7 1xPhospho [S140(100)] EHMT2", "setting": "[1]", "result": 0.2159},
      {"measurement": "Difference, Q15398 1xPhospho [S725(100)] DLGAP5", "setting": "[1]", "result": -0.5208},
      {"measurement": "Difference, Q15911 1xPhospho [S426(100)] ZFHX3", "setting": "[1]", "result": -0.09567},
      {"measurement": "DC50", "setting": "[2]; 10% foetal bovine serum (FBS), 24 h", "result": 1.3, "unit": "nM"},
      {"measurement": "DC50", "setting": "[2]; 10% mouse serum (MS), 24 h", "result": 10.4, "unit": "nM"},
      {"measurement": "Dmax", "setting": "[2]; HEK293, 10% foetal bovine serum (FBS), 24 h", "result": 89, "unit": "%"},
      {"measurement": "predicted shift in whole blood", "setting": "[2]; extrapolated from 10% mouse serum shift", "result": "~ 80 ×"},
      {"measurement": "free fraction in mouse plasma from serum shift", "setting": "[2]; extrapolated from serum shift assay", "result": "~ 1.2%"}
    ]}
  ]
}
